# System: ICAM2+ ECs
# Experiment: Expansion of purified ICAM2+ ECs for 2 days in 2D Matrigel system
# Assay type: cell-based, mouse
# Method: FIGS. 14A-14G. ROCK suppression continuously promotes the expansion of ECs. (FIG. 14A) ICAM2+ ECs were further incubated with PBS (Control), Y27632 (10┌ M), VEGF-A (50 ng/ml; VA) or Y27632 (10┌ M) plus VEGF-A (50 ng/ml) for 2 days, and analyses were performed at day 8.5. (FIG. 14B) Immunofluorescence images showing CD144+ EC colonies, ┌ SMA+MCs, and DAPI+ nuclei. Scale bars represent 100┌ m. (FIG. 14C) Representative FACS analysis of CD31+/CD144+ ECs. (FIG. 14D) % of CD31+/CD144+ EC population. Each group, n=3. *p<0.01 versus Control. (FIG. 14E) Relative cell number of ICAM2+ ECs. Each group, n=3. *p<0.01 versus Control; ^#p<0.01 versus VEGF-A. (FIG. 14F) Relative population of CD31+/CD144+ ECs. Population of CD31+/CD144+ ECs grown without VEGF-A and Y27632 was regarded as 100%. Each group, n=3. *p<0.01 versus Control; ^#p<0.01 versus VEGF-A. (FIG. 14G) % of adherent ICAM2+ECs onto plate at 6 hrs. Each group, n=3. *p<0.05 versus VEGF-A.
# E14tg2a ESC cell line was a generous gift from Dr. Jun K. Yamashita (Kyoto University), and R1 ESC cell line was purchased from American Type Cell Culture. Mouse iPSC derived from FVB strain was a generous gift from Drs. Hyun-Jai Cho and Hyo-Soo Kim (Seoul National University Hospital). […]
compound,measurement,setting,value
C[C@@H](N)[C@H]1CC[C@H](C(=O)Nc2ccncc2)CC1 [Y27632],decrease of CD31+/CD144+ EC population from the initial population of ˜90%,"day 8.5, agent alone, ˜30% without either agent",~22%
same,increase of total cell number,"day 8.5, compared to Control without VEGF-A and Y27632",~1.8 fold

# Reference: patent US20150368617A1, “METHOD FOR FORMING ENDOTHELIAL CELLS” (Korea Advanced Institute of Science and Technology (KAIST), priority 2012, published 2015)
